The record followed here is patent US20100120717A1, “KINASE INHIBITORS” (priority 2006, published 2010).

Aurora B/INCENP, sequence (Q96GD4 whole entry): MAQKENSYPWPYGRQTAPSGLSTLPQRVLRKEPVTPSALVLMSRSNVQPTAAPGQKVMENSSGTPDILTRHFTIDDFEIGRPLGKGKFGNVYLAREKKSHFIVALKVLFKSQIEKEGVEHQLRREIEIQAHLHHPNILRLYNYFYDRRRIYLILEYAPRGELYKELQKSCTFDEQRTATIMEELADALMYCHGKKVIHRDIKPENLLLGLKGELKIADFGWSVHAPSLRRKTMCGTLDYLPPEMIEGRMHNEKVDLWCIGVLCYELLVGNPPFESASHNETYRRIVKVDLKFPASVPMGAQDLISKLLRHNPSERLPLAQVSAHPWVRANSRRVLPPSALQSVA
Aurora B/INCENP, sequence (Q9NQS7 whole entry partner): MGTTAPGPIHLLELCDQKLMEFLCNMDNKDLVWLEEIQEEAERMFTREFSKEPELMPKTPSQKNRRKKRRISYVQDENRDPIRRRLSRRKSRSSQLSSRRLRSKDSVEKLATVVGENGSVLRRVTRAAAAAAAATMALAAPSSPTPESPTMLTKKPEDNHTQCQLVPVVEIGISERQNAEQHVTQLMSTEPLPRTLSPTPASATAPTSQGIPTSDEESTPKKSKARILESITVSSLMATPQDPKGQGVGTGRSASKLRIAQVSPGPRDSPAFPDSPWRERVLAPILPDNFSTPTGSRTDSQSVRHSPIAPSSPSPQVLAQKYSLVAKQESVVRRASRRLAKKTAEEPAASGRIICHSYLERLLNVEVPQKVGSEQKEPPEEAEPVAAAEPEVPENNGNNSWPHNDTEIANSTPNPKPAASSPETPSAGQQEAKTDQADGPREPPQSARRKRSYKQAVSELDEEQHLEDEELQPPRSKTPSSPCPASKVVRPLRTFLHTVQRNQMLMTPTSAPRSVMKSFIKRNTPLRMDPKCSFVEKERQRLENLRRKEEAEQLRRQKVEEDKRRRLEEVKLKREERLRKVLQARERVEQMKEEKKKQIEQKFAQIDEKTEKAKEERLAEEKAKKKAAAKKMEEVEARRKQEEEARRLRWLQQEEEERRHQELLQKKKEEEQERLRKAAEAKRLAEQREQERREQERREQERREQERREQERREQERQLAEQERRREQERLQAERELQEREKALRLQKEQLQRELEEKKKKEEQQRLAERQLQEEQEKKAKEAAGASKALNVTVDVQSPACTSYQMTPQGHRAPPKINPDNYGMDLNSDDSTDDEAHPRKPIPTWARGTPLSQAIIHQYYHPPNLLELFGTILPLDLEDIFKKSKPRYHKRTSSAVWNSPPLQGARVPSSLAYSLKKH

The experiment deals with Aurora B/INCENP (Homo sapiens, UniProt Q96GD4). As to the kind of experiment: Determination of inhibition of AIK: Aurora B/INCENP Direct Fluorescence Polarization (IMAP) assay. The class given is biochemical. The note with it: 10 uM ATP, 0.8 nM Aurora B/INCENP, 45 min at room temperature; read-out: IC50 of Exemplified Compounds Against AIK B. Here is the method:
Detection of the reaction product is performed by addition of Progressive IMAP binding reagent (Molecular Devices). Reaction product may be determined quantitatively by FP using an Analyst HT plate reader (Molecular Devices) with an excitation wavelength at 485 nm and emission at 530 nm and using a Fluorescein 505 dichroic mirror.
The assay reaction may be initiated as follows: 2 ul of (3×) 300 nM Fl-Peptide/30 uM ATP was added to each well of the plate, followed by the addition of 2 ul of (3×) inhibitor (2 fold serial dilutions for 11 data points for each inhibitor) containing 15% DMSO. Two microliters of (3×) 2.4 nM AuroraB/INCENP solution may be added to initiate the reaction (final enzyme concentration was 0.8 nM for Aurora B/INCENP). The reaction mixture may then be incubated at room temperature for 45 min, and quenched and developed by addition of 20 ul of 1 to 400 diluted Progressive IMAP binding reagent in 1× proprietary Progressive IMAP binding buffer A. Fluorescence polarization readings of the resulting reaction mixtures may be measured after a 60-minute incubation at room temperature.
IC50 values may be calculated by non-linear curve fitting of the compound concentrations and fluorescent polarization values to the standard IC50 equation.
(Fluorescence polarisation rises when a labelled molecule tumbles more slowly, as on binding a larger partner.)
As usually defined, the IC50 is the point on the concentration scale where inhibition reaches its midpoint. Turning to `CN1CCC(COc2ccc(-c3cccc(S(=O)(=O)C4CC4)c3)c3c2[nH]c2ncc(Cl)cc23)CC1` [Compound 286, 3-chloro-5-(3-(cyclopropylsulfonyl)phenyl)-8-((1-methylpiperidin-4-yl)methoxy)-9H-pyrido[2,3-b]indole], the IC50 was in the range of 6 to 10 nM.
For the compound `CCS(=O)(=O)c1cccc(-c2cnc(NCCCN(C)C)c3[nH]c4ncc(C)cc4c23)c1` [Compound 41, N′-[5-(3-Ethanesulfonyl-phenyl)-3-methyl-9H-dipyrido[2,3-b;4′,3′-d]pyrrol-8-yl]-N,N-dimethyl-propane-1,3-diamine], the IC50 was in the range of 6 to 10 nM.
Regarding `Cc1cnc2[nH]c3c(C)c(C(=O)NC4CCN(C)CC4)cc(-c4cccc(NC(=O)C5CC5)c4)c3c2c1` [Compound 120, 5-(3-(cyclopropanecarboxamido)phenyl)-3,8-dimethyl-N-(1-methyl-piperidin-4-yl)-9H-pyrido[2,3-b]indole-7-carboxamide], the IC50 was in the range of 6 to 10 nM.
The same measure for `CCS(=O)(=O)c1cccc(-c2cnc(OCCCN(C)C)c3[nH]c4ncc(C)cc4c23)c1` [Compound 52, {3-[5-(3-Ethanesulfonyl-phenyl)-3-methyl-9H-dipyrido[2,3-b;4′,3′-d]pyrrol-8-yloxy]-propyl}-dimethyl-amine]: 6 to 10 nM; for `CCN1CCC(NC(=O)c2cc(-c3cccc(S(=O)(=O)CC)c3)c3c([nH]c4ncc(C)cc43)c2C)CC1` [Compound 105, N-(1-ethylpiperidin-4-yl)-5-(3-(ethylsulfonyl)phenyl)-3,8-dimethyl-9H-pyrido[2,3-b]indole-7-carboxamide]: at least 11 nM; for `c1ccc(-c2cccc3[nH]c4ncccc4c23)cc1` [Compound 5, 5-phenyl-9H-pyrido[2,3-b]indole]: at least 11 nM.
On to `CCS(=O)(=O)c1cccc(-c2ccc(OCC(F)(F)F)c3[nH]c4ncc(C)cc4c23)c1` [Compound 173, 5-(3-(ethylsulfonyl)phenyl)-3-methyl-8-(2,2,2-trifluoroethoxy)-9H-pyrido[2,3-b]indole], for which the IC50 was at least 11 nM.
Take `CCS(=O)(=O)c1cccc(-c2cc(C(=O)NCCN(C)C)cc3[nH]c4ncc(C)cc4c23)c1` [Compound 142, 5-(3-Ethanesulfonyl-phenyl)-3-methyl-9H-pyrido[2,3-b]indole-7-carboxylic acid (2-dimethylamino-ethyl)-amide]: the IC50 fell in the range of 6 to 10 nM.
The same measure for `CN1CCC(COc2ccc(-c3cccc(C(=O)NC4CC4)c3)c3c2[nH]c2ncc(Cl)cc23)CC1` [Compound 285, 3-(3-chloro-8-((1-methylpiperidin-4-yl)methoxy)-9H-pyrido[2,3-b]indol-5-yl)-N-cyclopropylbenzamide]: 6 to 10 nM.
The figure for `CCS(=O)(=O)c1cccc(-c2cnc(OCC3CCN(C)CC3)c3[nH]c4ncc(C)cc4c23)c1` [Compound 54, 5-(3-Ethanesulfonyl-phenyl)-3-methyl-8-(1-methyl-piperidin-4-ylmethoxy)-9H-dipyrido[2,3-b;4′,3′-d]pyrrole] is 6 to 10 nM.
The figure for `Cc1cnc2[nH]c3c(OC[C@H](CN(C)C)OP(=O)(O)O)ccc(-c4cccc(S(=O)(=O)C5CC5)c4)c3c2c1` [Compound 314, (S)-1-(5-(3-(cyclopropylsulfonyl)phenyl)-3-methyl-9H-pyrido[2,3-b]indol-8-yloxy)-3-(dimethylamino)propan-2-yl dihydrogen phosphate] is at most 5 nM.
Take `Cc1cnc2[nH]c3c(C)c(C(=O)NC4CCN(C)CC4)cc(-c4cccc(S(=O)(=O)C5CC5)c4)c3c2c1` [Compound 154, 5-(3-(cyclopropylsulfonyl)phenyl)-3,8-dimethyl-N-(1-methylpiperidin-4-yl)-9H-pyrido[2,3-b]indole-7-carboxamide]: the 50% inhibitory concentration (IC50) was 6 to 10 nM.
The figure for `CCS(=O)(=O)c1cccc(-c2cc(C(=O)NC3CCN(C)CC3)c(C)c3[nH]c4ncc(C)cc4c23)c1` [Compound 88, 5-(3-(ethylsulfonyl)phenyl)-3,8-dimethyl-N-(1-methylpiperidin-4-yl)-9H-pyrido[2,3-b]indole-7-carboxamide] is 6 to 10 nM.
The same measure for `CCS(=O)(=O)c1cccc(-c2cc(C(=O)NCCCN3CCN(C)CC3)c(C)c3[nH]c4ncc(C)cc4c23)c1` [Compound 95, 5-(3-(ethylsulfonyl)phenyl)-3,8-dimethyl-N-(3-(4-methylpiperazin-1-yl)propyl)-9H-pyrido[2,3-b]indole-7-carboxamide]: at least 11 nM; for `CCOc1ncc(-c2cccc(S(=O)(=O)CC)c2)c2c1[nH]c1ncc(C)cc12` [Compound 51, 5-(3-Ethanesulfonyl-phenyl)-8-ethoxy-3-methyl-9H-dipyrido[2,3-b;4′,3′-d]pyrrole]: 6 to 10 nM.
The same measure for `Cc1cnc2[nH]c3c(OCC4CCN(C)CC4)ccc(-c4cccc(C(=O)NC5CC5)c4)c3c2c1` [Compound 178, N-cyclopropyl-3-(3-methyl-8-((1-methylpiperidin-4-yl)methoxy)-9H-pyrido[2,3-b]indol-5-yl)benzamide]: at least 11 nM; for `CCNS(=O)(=O)c1cccc(-c2ccc(OCCCN(C)C)c3[nH]c4ncc(C)cc4c23)c1` [Compound 295, 3-(8-(3-(dimethylamino)propoxy)-3-methyl-9H-pyrido[2,3-b]indol-5-yl)-N-ethylbenzenesulfonamide]: 6 to 10 nM.
`Cc1cnc2[nH]c3c(C)c(C(=O)NCCN(C)C)cc(-c4cccc(NC(=O)C5CC5)c4)c3c2c1` [Compound 112, 5-(3-(cyclopropanecarboxamido)phenyl)-N-(2-(dimethylamino)ethyl)-3,8-dimethyl-9H-pyrido[2,3-b]indole-7-carboxamide]: the IC50 is at least 11 nM.
Take `CCS(=O)(=O)c1cccc(-c2cc(C(=O)N[C@H]3CCCN(C)C3)c(C)c3[nH]c4ncc(C)cc4c23)c1` [Compound 117, (S)-5-(3-(ethylsulfonyl)phenyl)-3,8-dimethyl-N-(1-methylpiperidin-3-yl)-9H-pyrido[2,3-b]indole-7-carboxamide]: the concentration for half-maximal inhibition (IC50) is at least 11 nM.
The same measure for `CCNS(=O)(=O)c1cccc(-c2cc(C(=O)NC3CCN(C)CC3)c(C)c3[nH]c4ncc(C)cc4c23)c1` [Compound 153]: at least 11 nM.
With `COc1ccc(-c2cccc(NC(=O)C3CC3)c2)c2c1[nH]c1ncc(C)cc12` [Compound 163, N-(3-(8-methoxy-3-methyl-9H-pyrido[2,3-b]indol-5-yl)phenyl)cyclopropanecarboxamide], the IC50 was at least 11 nM.
The figure for `CCS(=O)(=O)c1cccc(-c2cc(C(=O)NCC3CCN(C)CC3)c(C)c3[nH]c4ncc(C)cc4c23)c1` [Compound 114, 5-(3-(ethylsulfonyl)phenyl)-3,8-dimethyl-N-((1-methylpiperidin-4-yl)methyl)-9H-pyrido[2,3-b]indole-7-carboxamide] is at least 11 nM.
The same measure for `CCN(CCCOc1ccc(-c2cccc(S(=O)(=O)C3CC3)c2)c2c1[nH]c1ncc(C)cc12)CCOP(=O)(OC(C)(C)C)OC(C)(C)C` [Compound 271, di-tert-butyl-2-((3-(5-(3-(cyclopropylsulfonyl)phenyl)-3-methyl-9H-pyrido[2,3-b]indol-8-yloxy)propyl)(ethyl)amino)ethyl phosphate]: at most 5 nM; for `CCN(CCCOc1ccc(-c2cccc(S(=O)(=O)C3CC3)c2)c2c1[nH]c1ncc(C)cc12)CCOP(=O)(O)O` [Compound 272, 2-((3-(5-(3-(cyclopropylsulfonyl)phenyl)-3-methyl-9H-pyrido[2,3-b]indol-8-yloxy)propyl)(ethyl)amino)ethyl dihydrogen phosphate]: 6 to 10 nM.
